Series [1] can be described thus: Plasma concentrations of the transporter inhibitors around expected time to Cmax. Type of series: in vivo, healthy male subjects. The settings on record: cimetidine 400 mg multiple doses; current study.
The conditions of series [2]: cited from earlier work.
The conditions of series [3]: for AUC0–tz Ratio T/R / Cmax Ratio T/R: cocktail + probenecid vs cocktail alone.
The conditions of series [4]: for AUC0–tz Ratio T/R / Cmax Ratio T/R: cocktail + cimetidine vs cocktail alone.
The nature of series [5]: Safety and tolerability assessment. It is filed as in vivo, healthy male subjects. Particulars: one subject, upon administration of probenecid 1000 mg.
Where [6] appears, read: cocktail + rifampin vs cocktail alone.
[7] abbreviates: cocktail + verapamil vs cocktail alone.
The mark [8] stands for this setting: cocktail with single-dose rifampin vs cocktail alone.
Setting [9] is: cocktail with single-dose verapamil vs cocktail alone.
[10] abbreviates: cocktail (metformin 10 mg) with cimetidine vs cocktail alone.
[11] abbreviates: cocktail (furosemide 1 mg) with probenecid vs cocktail alone.
[12] abbreviates: metformin 500 mg with cimetidine vs alone.

Entries after “also recorded” stand apart in the source; their conditions may differ. Read-outs that look alike come from different tables or passages of the source.

For the molecule `CN/C(=N/CCSCc1nc[nH]c1C)NC#N` [Cimetidine, cimetidine], the maximum plasma concentrations in series [1] lay in the range of 4.24 to 11.1 µM.

For `C[C@H]1O[C@@H](O[C@H]2[C@@H](O)C[C@H](O[C@H]3[C@@H](O)C[C@H](O[C@H]4CC[C@@]5(C)[C@H](CC[C@@H]6[C@@H]5C[C@@H](O)[C@]5(C)[C@@H](C7=CC(=O)OC7)CC[C@]65O)C4)O[C@@H]3C)O[C@@H]2C)C[C@H](O)[C@@H]1O` [Digoxin, digoxin], the “AUC0–tz Ratio T/R” value under setting [6] is on record as 131.41%, the “AUC0–tz Ratio T/R” value under setting [7] turned out to be 100.70%, the “AUC0–tz Ratio T/R” value in series [3] was 106.78% and the “AUC0–tz Ratio T/R” value in series [4] was found to be 125.61%. The “Cmax Ratio T/R” value under setting [6] is recorded as 218.26%, the “Cmax Ratio T/R” value under setting [7] is listed as 121.64%, the “Cmax Ratio T/R” value in series [3] was 87.07% and the “Cmax Ratio T/R” value in series [4] is reported as 122.03%. Further, the “increase of AUC0–tz” value under setting [8] worked out at 31% and the “increase of AUC0–tz” value in series [4] (setting [10]) amounted to 26%. For the same molecule, the “increase of Cmax” value is, setting by setting: under setting [8], 118%; under setting [9], 22%. Under setting [9], the “effect on AUC0–tz” value was “unaltered; also recorded: unchanged”. Under setting [9], the “effect on CLR” value is recorded as “unchanged”. Further, the increase in exposure in series [2] (digoxin with verapamil administered over multiple days) is listed as 44–77%. In series [3] (cocktail with probenecid vs cocktail alone), the “effect of probenecid on systemic exposure” value is “no relevant effect”.

Consider `NS(=O)(=O)c1cc(C(=O)O)c(NCc2ccco2)cc1Cl` [Furosemide, furosemide], for which the “decrease of CLR” value in series [3] (setting [11]) is 74%; in series [3] (furosemide 40 mg with probenecid vs alone), 76%.

Consider `CN(C)C(=N)N=C(N)N` [Metformin, metformin], for which the “increase in systemic exposure” value in series [2] (metformin with cimetidine, previous findings) was 45–70%. In addition, in series [2] (metformin with rifampin coadministration), the increase in exposure is reported as 10%. In addition, in series [4] (setting [10]), the “increase of AUC0–tz” value is reported as 31% and the “increase of Cmax” value was 23%. For the same molecule, in series [4] (setting [12]), the “increase of AUC0–tz” value is listed as 51% and the “increase of Cmax” value came out at 41%.

Take `CCCN(CCC)S(=O)(=O)c1ccc(C(=O)O)cc1` [Probenecid, probenecid]: the “AEs leading to premature withdrawal from treatment” value in series [5] is “nausea, dizziness”.

Turning to `CC(C)c1nc(N(C)S(C)(=O)=O)nc(-c2ccc(F)cc2)c1/C=C/[C@@H](O)C[C@@H](O)CC(=O)O` [Rosuvastatin, rosuvastatin], the “AUC0–tz Ratio T/R” value under setting [6] is 348.06%, the “AUC0–tz Ratio T/R” value under setting [7] is reported as 113.40%, the “AUC0–tz Ratio T/R” value in series [3] came to 223.24% and the “AUC0–tz Ratio T/R” value in series [4] is recorded as 107.42%. In addition, the “Cmax Ratio T/R” value under setting [6] is on record as 1125.10%, the “Cmax Ratio T/R” value under setting [7] is 115.39%, the “Cmax Ratio T/R” value in series [3] was 428.23% and the “Cmax Ratio T/R” value in series [4] stood at 116.88%. In addition, the “increase of AUC0–tz” value under setting [8] was found to be 248% and the “increase of AUC0–tz” value in series [3] (setting [11]) came to 123%. The “increase of Cmax” value under setting [8] came to 1025% and the “increase of Cmax” value in series [3] (setting [11]) was 328%. The “effect of verapamil on systemic exposure” value under setting [9] is on record as “no effect”. Also, the “decrease of CLR” value in series [3] (setting [11]) turned out to be 78%. For the same molecule, the “effect of cimetidine on systemic exposure” value in series [4] (cocktail with cimetidine vs cocktail alone) is listed as “no effect”.
